Results reported in US20160251403A1, “PEPTIDE COMBINATIONS AND USES THEREOF IN TREATING DUST MITE ALLERGY” (ALK-ABELLO A/S, priority 2013, published 2016).
No end group written: not given here.

Tests used:
DRB1_1501 = DRB1_1501 (Homo sapiens, UniProt P01903+P01911); experiment: Competitive MHC class II binding assay, DRB1_1501
DRB3_0101 = DRB3_0101 (Homo sapiens, UniProt P01903+P79483); experiment: Competitive MHC class II binding assay, DRB3_0101
DQA10102-DQB10602 = experiment: Competitive MHC class II binding assay, DQA10102-DQB10602; conditions: read-out: HLA-DQA10102-DQB10602; positive binding at cutoff 1000 nM
DRB4_0101 = DRB4_0101 (Homo sapiens, UniProt P01903+P13762, G164S); experiment: Competitive MHC class II binding assay, DRB4_0101
DQA10101-DQB10501 = DQA10101-DQB10501 (Homo sapiens, UniProt P01909+P01920, A157S/A45G/A70V/C70R/D89V/E106S/E118A/E183D/E77G/F83G/G63E/H151Q/H199R/H252R/H253Q/I129T/I235V/I88M/INS77G/K197Q/L107V/L117V/L119Y/L178F/L71W/L74F/L85Q/L91A/L98M/M46L/N214S/P87R/Q116E/Q256R/Q57E/Q76K/R102G/R240Q/R75S/R78G/S102Y/S185I/S41F/S97I/T103A/T109R/T121G/T122I/T172A/T86R/V148I/V68A/V73E/Y34C/Y58G/Y62H); experiment: Competitive MHC class II binding assay, DQA10101-DQB10501; conditions: positive binding at cutoff 1000 nM; read-out: HLA-DQA10101-DQB10501
DRB3_0202 = DRB3_0202 (Homo sapiens, UniProt P01903+P79483, A212P/D57E/F66Y/L67A/R103Q/R218S/R40L/S89Y/T80R/V86D/Y55F/Y59H); experiment: Competitive MHC class II binding assay, DRB3_0202
DQA10401-DQB10402 = experiment: Competitive MHC class II binding assay, DQA10401-DQB10402; conditions: for IC50: read-out: HLA-DQA10401-DQB10402, positive binding at cutoff 1000 nM
DPA10103-DPB10201 = target: T1, DPA10103-DPB10201 (Homo sapiens, UniProt P04440+P20036, A65V/A84D/A85E/K98E); experiment: Competitive MHC class II binding assay, DPA10103-DPB10201
T1 sequence (P20036 29-260): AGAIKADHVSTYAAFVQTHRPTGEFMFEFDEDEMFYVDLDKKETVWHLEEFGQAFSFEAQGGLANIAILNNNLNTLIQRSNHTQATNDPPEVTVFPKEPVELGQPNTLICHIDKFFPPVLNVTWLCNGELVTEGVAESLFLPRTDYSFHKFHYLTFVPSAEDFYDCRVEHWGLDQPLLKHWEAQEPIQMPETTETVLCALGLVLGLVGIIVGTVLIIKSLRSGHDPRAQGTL
T1 sequence (P04440 30-258 A65V/A84D/A85E/K98E): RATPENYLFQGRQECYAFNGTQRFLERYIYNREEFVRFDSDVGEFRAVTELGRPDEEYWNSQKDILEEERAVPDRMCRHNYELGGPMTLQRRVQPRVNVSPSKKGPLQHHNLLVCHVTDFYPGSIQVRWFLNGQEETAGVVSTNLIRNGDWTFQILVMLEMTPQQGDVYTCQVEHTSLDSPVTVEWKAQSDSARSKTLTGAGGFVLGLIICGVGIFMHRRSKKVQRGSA

[1] = Solubility of peptides in aqueous solutions at different pH (visual inspection, OD, HPLC); type: physicochemical
In short: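 Peptides at about 0.25 mM or 1 mM final in water, pH 2 HCl, or pH 5, 7 or 9 buffers with 140 mM NaCl, optionally with about 20% DMSO. Turbidity and particles checked visually before and after centrifugation and by OD. RP-HPLC peak height or area was compared with peptide dissolved in acetonitrile or DMSO.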

Compound	IC50 (DRB1_1501)	IC50 (DRB3_0101)	IC50 (DQA10102-DQB10602)	IC50 (DRB4_0101)	IC50 (DQA10101-DQB10501)	IC50 (DRB3_0202)	IC50 (DQA10401-DQB10402)	IC50 (DPA10103-DPB10201)	Solubility at pH 7 ([1]; Table 11a, evaluated by visual inspection)	Solubility at pH 7 (visual inspection) [1]	binding to HLA Class II allele DRB3_0101 (DRB3_0101; as shown in Table 16a)	binding to HLA Class II allele DRB3_0202 (DRB3_0202; as shown in Table 16a)	binding to HLA Class II allele DQA10401-DQB10402 (DQA10401-DQB10402; as shown in Table 16a)
DNGYGYFAANIDLMMIEE [pep-010]	< 1000 nM	< 1000 nM	< 1000 nM	< 1000 nM	< 1000 nM	< 1000 nM	< 1000 nM	< 1000 nM			binds to at least the same alleles as peptide 041	binds to at least the same alleles as peptide 041	binds to at least the same alleles as peptide 041
LVKGQQYDIKYTWNVPKIAPK [pep-131]						< 1000 nM		< 1000 nM	Clear				
LVGDNGVLASAIATHAKIRD [pep-110]		< 1000 nM	< 1000 nM	< 1000 nM									
HAVNIVGYSNAQGVDYWIVR [pep-058]	< 1000 nM	< 1000 nM	< 1000 nM	< 1000 nM	< 1000 nM					Slight turbid			

Continued, in another order:

IC50 (DRB1_1501)	IC50 (DRB3_0101)	IC50 (DQA10102-DQB10602)	IC50 (DRB4_0101)	IC50 (DQA10101-DQB10501)	IC50 (DRB3_0202)	IC50 (DQA10401-DQB10402)	IC50 (DPA10103-DPB10201)	Solubility at pH 7 ([1]; Table 11a, evaluated by visual inspection)	Solubility at pH 7 (visual inspection) [1]	Compound	binding to HLA Class II allele DRB3_0101 (DRB3_0101; as shown in Table 16a)	binding to HLA Class II allele DRB3_0202 (DRB3_0202; as shown in Table 16a)	binding to HLA Class II allele DQA10401-DQB10402 (DQA10401-DQB10402; as shown in Table 16a)
< 1000 nM		< 1000 nM		< 1000 nM	< 1000 nM	< 1000 nM				GSGSSWAFSGVAATESAYLA [pep-044]			
		< 1000 nM	< 1000 nM	< 1000 nM			< 1000 nM		Slight turbid	CC[C@H](C)[C@H](NC(=O)CNC(=O)[C@@H](NC(=O)[C@@H](NC(=O)[C@@H](NC(=O)[C@H](C)NC(=O)[C@@H](NC(=O)[C@H](C)NC(=O)[C@H](CO)NC(=O)[C@H](Cc1c[nH]cn1)NC(=O)[C@@H](NC(=O)[C@H](CCC(N)=O)NC(=O)[C@H](C)NC(=O)[C@H](CC(C)C)NC(=O)[C@H](C)NC(=O)[C@H](CCC(=O)O)NC(=O)[C@@H](N)CCCNC(=N)N)[C@@H](C)O)[C@@H](C)CC)C(C)C)[C@@H](C)CC)[C@@H](C)CC)C(=O)N[C@@H](CCCCN)C(=O)N[C@@H](CC(=O)O)C(=O)N[C@@H](CC(C)C)C(=O)N[C@@H](CC(=O)O)C(=O)N[C@@H](C)C(=O)O [pep-130]			
